From patent US6256527A, “Method for determining oxygen concentration” (Nycomed Imaging AS, priority 1995, dated 2001)

Columns and labels:
Format in all cases: physicochemical
[1] = ESR line widths of nitroxides in degassed benzene
Excerpt: The ESR-spectral properties of a series of partially and fully deuterated nitroxides (compounds 3b-d) also useful in the method of the invention have been investigated. These radicals are derived from 2,5-di-t-butyl-3,4-dimethoxycarbonyl-pyrryloxyl (Compound 3a) and were investigated alongside Tempone (4-oxo-2,2,6,6-tetramethyl-piperidine-1-oxyl, 1) and CTPO (3-carbamoyl-2,2,5,5-tetramethyl-pyrroline-1-yloxyl, 2a) which are typical examples of nitroxides frequently used for imaging purposes.
Instrumentation. The ESR-spectra were recorded by the Upgrade Version ESP 3220-200SH of a Bruker ER-200D SRC instrument at 22°. The radical concentration was in the range 0.1-0.2 mM and the modulation amplitude was 10 mG. The microwave power was well below saturation. NMR-spectra were recorded on a Varian XL-300 spectrometer. Mass spectra were recorded on a VG Quattor II instrument equipped with ESPC electrospray. GLC analyses were performed on a HP 5830 ser II instrument, equipped with a fused-silica column (30 m, 0.25 μm, HP-1701). TLC analyses and column chromotographic separations were performed on Silica Gel 60, using heptane/ether as the eluent.
Preparation of pyrryloxyl radicals. To a degassed solution of 2 mg of the hydroxylamine 7a-7d in 2 ml of benzene was added ca. 10 mg NiOOH. After 5 min the suspension was filtered and the pale green blue solution was diluted with degassed benzene in order to obtain a solution suitable for ESR.
ESR-measurements. Summarised in Table 5 are the ESR line widths for the nitroxides discussed above. […] Perdeuteration results in a reduction of the line width by a factor of 2.2 for 1 and of 2.5 for 2b. […] The spin density distributions, nitrogen coupling constants and intrinsic line widths for 3d are compared in Table 6 to other nitroxides.

[2] = DNP (Overhauser) enhancement and DNP-curve relaxivity at infinite concentration and power; conditions: water
Excerpt: The calibration data are generated by determining Overhauser enhancement values for the radical in the selected body fluid, at the selected temperature and at a range of oxygen (and preferably also radical) concentrations. The intrinsic esr relaxation times for the radical can be determined, under the same conditions, using a conventional esr spectrometer equipped with a temperature controller, with oxygen concentration being determined using the method of Ravin et al J. Appl. Physiol. 18:784-790(1964), a method known to produce accurate and reproducible results.
(§1) The following four water soluble, single ESR line trityls were investigated by NMRD, Dynamic Nuclear Polarisation (DNP) and ESR (Examples 1-4).
(§2) The relaxivity and DNP enhancement data were measured in water, plasma and blood at 23° C. and 37° C. The results are set out in Tables 1 and 2.

[3] = Electron spin relaxation rates (radical concentration dependent) from CW ESR spectra and DNP data; conditions: water (isotonic saline)
Description: as §1
Electron spin relaxation rates were measured by analysis of CW ESR spectra and DNP data at 23° C. and 37° C. in water, isotonic saline, plasma and blood for the deuterated hydroxy trityl and in water and isotonic saline for the perdeuterated and symmetric trityl.

[4] = Relaxivity from NMRD profiles in water, plasma and blood; conditions: water
Description: as §1, §2

CC1(C)CC(=O)CC(C)(C)N1[O] [Compound 1, 4-oxo-2,2,6,6-tetramethyl-piperidine-1-oxyl, reference compound]
ESR Line width ([1]; benzene, 23° C.): 602 mg
reduction of the line width by perdeuteration (factor) ([1]; degassed benzene, 22° C.): 2.2

[2H]C([2H])([2H])C1(C([2H])([2H])[2H])N([O])C(C([2H])([2H])[2H])(C([2H])([2H])[2H])C([2H])([2H])C(=O)C1([2H])[2H] [Compound 1-d16, 4-oxo-2,2,6,6-tetramethyl-piperidine-d16-1-oxyl, reference compound]
ESR Line width ([1]; benzene, 23° C.): 266 mg

CC1(C)C=C(C(=O)O)C(C)(C)N1[O] [Compound 2b, 2,2,5,5-tetramethyl-3-pyrrolin-1-oxyl-3-carboxylic acid, reference compound]
ESR Line width ([1]; benzene, 23° C.): 1032 mg
reduction of the line width by perdeuteration (factor) ([1]; degassed benzene, 22° C.): 2.5

[2H]C1=C(C(=O)O)C(C([2H])([2H])[2H])(C([2H])([2H])[2H])N([O])C1(C([2H])([2H])[2H])C([2H])([2H])[2H] [Compound 2b-d13, 2,2,5,5-tetramethyl-3-pyrrolin-d13-oxyl-3-carboxylic acid, reference compound]
ESR Line width ([1]; benzene, 23° C.): 407 mg

COC(=O)c1c(C(=O)OC)c(C(C)(C)C)n([O])c1C(C)(C)C [Compound 3a, 2,5-di-t-butyl-3,4-dimethoxycarbonyl-pyrryloxyl]
ESR Line width ([1]; benzene, 23° C.): 228 mg

[2H]C([2H])([2H])OC(=O)c1c(C(=O)OC([2H])([2H])[2H])c(C(C)(C)C)n([O])c1C(C)(C)C [Compound 3b]
ESR Line width ([1]; benzene, 23° C.): 172 mg

[2H]C([2H])([2H])C(c1c(C(=O)OC)c(C(=O)OC)c(C(C([2H])([2H])[2H])(C([2H])([2H])[2H])C([2H])([2H])[2H])n1[O])(C([2H])([2H])[2H])C([2H])([2H])[2H] [Compound 3c]
ESR Line width ([1]; benzene, 23° C.): 219 mg
influence of deuteration of the t-butyl groups alone on line width, 3a:3c ([1]; degassed benzene, 22° C.): almost no influence

[2H]C([2H])([2H])OC(=O)c1c(C(=O)OC([2H])([2H])[2H])c(C(C([2H])([2H])[2H])(C([2H])([2H])[2H])C([2H])([2H])[2H])n([O])c1C(C([2H])([2H])[2H])(C([2H])([2H])[2H])C([2H])([2H])[2H] [Compound 3d]
ESR Line width ([1]; benzene, 23° C.): 113 mg
decrease of line width by deuteration of the alkyl groups of the ester moiety, 3c:3d (factor) ([1]; degassed benzene, 22° C.): 1.9
ESR Line width ([1]; degassed benzene, 22° C., high dilution): 113 mg
nitrogen coupling constant ([1]; in benzene): 4.4 G

CC(C)(C)c1c(C(=O)O)c(C(=O)O)c(C(C)(C)C)n1O [Compound 4, 2.5-di-t-butyl-N-hydroxy-pyrrol-3,4-dicarboxylic acid]
ESR line width compared with 3b ([1]; upon treatment with NiOOH): almost identical to that of 3b

Tris-(8-sodium carboxylate-2,2,6,6-tetrakis-(^2 H3 -methyl)-benzo[1,2-d:4,5-d']-bis(1,3) dithiole)methyl [symmetric trityl]
A. (enhancement at infinite concentration and power) [2]: 266
2(3γe T1e)^-1, concentration dependent relaxation rate (peak-to-peak) ([3]; 23° C.): 13.2 ± 0.5 mg/mM
2(3γe T2e)^-1, concentration dependent relaxation rate (peak-to-peak) ([3]; 23° C.): 35.4 ± 0.6 mg/mM
2(3γe T1e)^-1, concentration dependent relaxation rate (peak-to-peak) ([3]; 37° C.): 17.7 ± 0.8 mg/mM
2(3γe T2e)^-1, concentration dependent relaxation rate (peak-to-peak) ([3]; 37° C.): 33.1 ± 0.3 mg/mM
Relaxivity ([4]; 23° C.): 0.21 mM⁻¹ s⁻¹
Relaxivity ([4]; 37° C.): 0.15 mM⁻¹ s⁻¹
